Results from ChEMBL document CHEMBL1130957, “Functional characteristics of a series of N4-substituted 1-(2,3-dihydro-1,4-benzodioxin-5-yl)piperazines as 5-HT1A receptor ligands. Structure-activity relationships” (Bioorg Med Chem Lett, 1998).

Experiments:
[1] = molecular target: T1, 5-hydroxytryptamine receptor 1A (Homo sapiens) (UniProt P08908); assay: Antagonistic efficacy as adenylyl cyclase assay in CHO cells expressing human 5-HT1A receptor (experiment 1); format: functional, cell-based
T1 sequence (whole entry): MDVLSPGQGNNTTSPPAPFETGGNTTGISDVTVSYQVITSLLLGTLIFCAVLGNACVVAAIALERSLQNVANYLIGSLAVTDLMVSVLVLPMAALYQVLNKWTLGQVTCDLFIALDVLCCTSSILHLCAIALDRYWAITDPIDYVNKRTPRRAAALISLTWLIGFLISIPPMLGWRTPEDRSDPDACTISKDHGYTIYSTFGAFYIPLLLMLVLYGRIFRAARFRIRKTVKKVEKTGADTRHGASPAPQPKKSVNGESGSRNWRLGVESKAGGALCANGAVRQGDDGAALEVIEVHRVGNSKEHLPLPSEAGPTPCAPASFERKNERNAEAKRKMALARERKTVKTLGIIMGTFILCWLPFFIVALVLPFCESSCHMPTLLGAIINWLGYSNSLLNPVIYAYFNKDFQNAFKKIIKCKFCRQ

[2] = molecular target: T2, 5-hydroxytryptamine receptor 1A (Rattus norvegicus, UniProt P19327)
T2 sequence (P19327 whole entry): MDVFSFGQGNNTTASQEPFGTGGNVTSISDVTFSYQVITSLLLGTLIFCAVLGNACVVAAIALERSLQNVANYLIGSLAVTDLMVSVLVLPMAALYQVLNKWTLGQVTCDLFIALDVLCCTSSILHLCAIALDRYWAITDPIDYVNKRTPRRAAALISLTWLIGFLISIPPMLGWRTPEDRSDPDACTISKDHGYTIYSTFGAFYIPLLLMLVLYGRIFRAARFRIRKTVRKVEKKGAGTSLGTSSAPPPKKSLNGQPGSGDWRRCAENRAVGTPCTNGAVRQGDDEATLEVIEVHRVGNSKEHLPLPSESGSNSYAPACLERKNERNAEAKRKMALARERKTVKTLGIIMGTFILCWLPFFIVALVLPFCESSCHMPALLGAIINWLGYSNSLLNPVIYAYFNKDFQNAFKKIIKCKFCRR
Description: Inhibition of [3H]8-OH-DPAT binding to 5-hydroxytryptamine 1A receptor of rat frontal cortex membranes

[3] = molecular target: T1, 5-hydroxytryptamine receptor 1A (Homo sapiens); assay: Agonistic efficacy in adenylyl cyclase assay in CHO cells expressing human 5-HT1A receptor (experiment 2); format: functional, cell-based
[4] = molecular target: T3, 5-hydroxytryptamine receptor 1A (Homo sapiens, UniProt P08908); assay: Compound was tested for its potency against human 5-hydroxytryptamine 1A receptor expressed in CHO cells (experiment 2); format: functional, cell-based
T3 sequence (P08908 whole entry): T1 sequence (whole entry)

[5] = molecular target: T1, 5-hydroxytryptamine receptor 1A (Homo sapiens); assay: Antagonistic efficacy as adenylyl cyclase assay in CHO cells expressing human 5-HT1A receptor (experiment 2); format: functional, cell-based
[6] = molecular target: T1, 5-hydroxytryptamine receptor 1A (Homo sapiens); assay: Agonistic efficacy as adenylyl cyclase assay in CHO cells expressing human 5-HT1A receptor (experiment 1); format: functional, cell-based
[7] = molecular target: T3, 5-hydroxytryptamine receptor 1A; assay: Potency against human 5-hydroxytryptamine 1A receptor expressed in CHO cells (experiment 1); format: functional, cell-based
[8] = molecular target: T3, 5-hydroxytryptamine receptor 1A
[9] = molecular target: T1, 5-hydroxytryptamine receptor 1A (Homo sapiens); assay: Antagonistic efficacy was evaluated by adenylyl cyclase assay in CHO cells stably expressing the human 5-HT1A receptor; format: functional, cell-based
[10] = molecular target: T2, 5-hydroxytryptamine receptor 1A; assay: (§1) Compound was tested for its potency against 5-hydroxytryptamine 1A receptor in rat frontal cortex membranes (experiment 2); format: cell membranes, Membrane; details: read-out: pA2 (converted)
[11] = molecular target: T2, 5-hydroxytryptamine receptor 1A; assay: Compound was tested for its potency against 5-hydroxytryptamine 1A receptor in rat frontal cortex membranes (experiment 1); format: cell membranes, Membrane; details: read-out: pA2 (converted)
[12] = molecular target: T2, 5-hydroxytryptamine receptor 1A; assay: as §1; format: functional, cell membranes, Membrane; details: read-out: pA2 (converted)
[13] = molecular target: T3, 5-hydroxytryptamine receptor 1A; assay: Compound was tested for its potency against 5-hydroxytryptamine 1A receptor expressed in CHO cells (experiment 2); format: functional, cell-based
[14] = molecular target: T1, 5-hydroxytryptamine receptor 1A (Homo sapiens); assay: Antagonistic efficacy was evaluated by adenylyl cyclase assay in CHO cells stably expressing the human 5-HT1A receptor (experiment 1); format: functional, cell-based
[15] = molecular target: T1, 5-hydroxytryptamine receptor 1A (Homo sapiens); assay: Agonistic efficacy was evaluated by adenylyl cyclase assay in CHO cells stably expressing the human 5-HT1A receptor (experiment 2); format: functional, cell-based
[16] = molecular target: T1, 5-hydroxytryptamine receptor 1A (Homo sapiens); assay: Antagonistic efficacy was evaluated by adenylyl cyclase assay in CHO cells stably expressing the human 5-HT1A receptor (experiment 2); format: functional, cell-based

Row | SMILES | Efficacy [1] | Ki [2] | Efficacy [3] | EC50 [4] | Efficacy [5] | Efficacy [6] | EC50 [7] | Kb [10] | Kb [11] | Kb [12] | EC50 [13] | Efficacy [14] | Efficacy [15] | Efficacy [16] | EC50 [8] | Efficacy [9]
1 | O=C1c2ccccc2C(=O)N1CCN1CCN(c2cccc3c2OCCO3)CC1 | 0% | 31.6 nM | 30% | – | 2% | 0% | – | – | – | – | – | – | – | – | – | –
2 | O=C(NCCN1CCN(c2cccc3c2OCC(CO)O3)CC1)c1ccc(F)cc1 (single isomer, unassigned) [FLESINOXAN] | – | – | – | – | – | – | – | – | – | – | – | – | – | – | 6.61 nM | 0%
3 | O=C1c2ccccc2C(=O)N1CCCCN1CCN(c2cccc3c2OCCO3)CC1 | 55% | 0.229 nM | 49% | 5.75 nM | 62% | 44% | 1.35 nM | 0.676 nM | 0.661 nM | – | – | – | – | – | – | –
4 | c1ccc(CCCCN2CCN(c3cccc4c3OCCO4)CC2)cc1 | 74% | – | 50% | 6.03 nM | 70% | 45% | 6.76 nM | 25.1 nM | – | – | – | – | – | – | – | –
5 | O=C1c2ccccc2S(=O)(=O)N1CCCCN1CCN(c2ncccn2)CC1 [IPSAPIRONE] | – | – | – | – | – | – | – | – | – | – | – | – | – | – | 67.6 nM | 0%

Continued, in another order:

Row | Efficacy [1] | Ki [2] | Efficacy [3] | EC50 [4] | Efficacy [5] | Efficacy [6] | EC50 [7] | Kb [10] | Kb [11] | Kb [12] | EC50 [13] | Efficacy [14] | Efficacy [15] | Efficacy [16] | SMILES | EC50 [8] | Efficacy [9]
6 | 17% | 1.05 nM | 85% | 31.6 nM | 0% | 81% | 12.6 nM | – | – | – | – | – | – | – | O=C(NCCCCN1CCN(c2cccc3c2OCCO3)CC1)c1ccc(F)cc1 | – | –
7 | 68% | 0.288 nM | 23% | – | 65% | 11% | – | – | – | 0.363 nM | – | – | – | – | O=C1c2ccccc2S(=O)(=O)N1CCCCN1CCN(c2cccc3c2OCCO3)CC1 | – | –
8 | 22% | 1.35 nM | 48% | 7.41 nM | 42% | 50% | 5.25 nM | – | – | – | – | – | – | – | O=C(CCCN1CCN(c2cccc3c2OCCO3)CC1)c1ccc(F)cc1 | – | –
9 | 0% | 1.23 nM | 86% | – | 0% | 97% | 251 nM | – | – | – | 631 nM | – | – | – | O=C1c2ccccc2S(=O)(=O)N1CCN1CCN(c2cccc3c2OCCO3)CC1 | – | –
10 | 0% | 0.295 nM | 97% | 0.851 nM | 0% | 97% | 0.955 nM | – | – | – | – | – | – | – | O=C(NCCN1CCN(c2cccc3c2OCCO3)CC1)c1ccc(F)cc1 | – | –
11 | 100% | 0.708 nM | 0% | – | 100% | 0% | – | – | – | 0.288 nM | – | – | – | – | O=C1c2ccccc2S(=O)(=O)N1CCCCN1CCN(c2cc(Cl)cc3c2OCCO3)CC1 [DU 125530] | – | –
12 | – | – | – | 2.82 nM | – | 71% | 2.88 nM | – | – | – | – | 33% | 67% | 18% | O=C(CCCN1CCN(c2cccc3c2OCCO3)CC1)c1ccccc1 | – | –
